Assay results reported in patent publication US7208290B2, “Methods of co-expressing umami taste receptors and chimeric Gα15 variants” (Senomyx, Inc., priority 2002, dated 2007).

Target: T1, rat T1R1/T1R3 umami taste receptor (Rattus norvegicus, UniProt Q9Z0R8)
T1 construct: expressed in transfected cells; host or cells: HEK-293 cells, transient transfection, pEAK10 expression vector
T1 sequence (Q9Z0R8 20-840): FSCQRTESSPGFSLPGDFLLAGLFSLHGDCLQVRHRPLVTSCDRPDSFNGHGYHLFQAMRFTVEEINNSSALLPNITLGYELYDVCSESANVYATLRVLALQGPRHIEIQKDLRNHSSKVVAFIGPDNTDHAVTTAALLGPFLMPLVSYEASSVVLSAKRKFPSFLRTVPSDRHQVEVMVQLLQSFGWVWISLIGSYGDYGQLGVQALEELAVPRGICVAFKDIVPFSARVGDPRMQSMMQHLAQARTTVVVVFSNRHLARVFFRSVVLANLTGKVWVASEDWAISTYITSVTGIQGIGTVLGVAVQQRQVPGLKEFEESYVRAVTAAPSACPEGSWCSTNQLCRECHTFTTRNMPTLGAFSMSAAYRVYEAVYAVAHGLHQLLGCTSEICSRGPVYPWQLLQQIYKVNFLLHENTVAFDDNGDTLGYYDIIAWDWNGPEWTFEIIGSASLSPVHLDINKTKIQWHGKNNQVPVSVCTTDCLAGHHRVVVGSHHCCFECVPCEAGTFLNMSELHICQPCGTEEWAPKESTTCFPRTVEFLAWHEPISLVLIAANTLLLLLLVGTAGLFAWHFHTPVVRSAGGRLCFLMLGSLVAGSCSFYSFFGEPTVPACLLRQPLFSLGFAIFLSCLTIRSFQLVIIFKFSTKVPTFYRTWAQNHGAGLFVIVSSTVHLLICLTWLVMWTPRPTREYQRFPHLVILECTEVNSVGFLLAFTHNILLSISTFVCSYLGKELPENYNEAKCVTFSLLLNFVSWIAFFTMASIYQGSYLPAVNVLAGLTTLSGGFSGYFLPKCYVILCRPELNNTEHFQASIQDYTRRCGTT
T1 sequence (Q923K1 21-858 partner): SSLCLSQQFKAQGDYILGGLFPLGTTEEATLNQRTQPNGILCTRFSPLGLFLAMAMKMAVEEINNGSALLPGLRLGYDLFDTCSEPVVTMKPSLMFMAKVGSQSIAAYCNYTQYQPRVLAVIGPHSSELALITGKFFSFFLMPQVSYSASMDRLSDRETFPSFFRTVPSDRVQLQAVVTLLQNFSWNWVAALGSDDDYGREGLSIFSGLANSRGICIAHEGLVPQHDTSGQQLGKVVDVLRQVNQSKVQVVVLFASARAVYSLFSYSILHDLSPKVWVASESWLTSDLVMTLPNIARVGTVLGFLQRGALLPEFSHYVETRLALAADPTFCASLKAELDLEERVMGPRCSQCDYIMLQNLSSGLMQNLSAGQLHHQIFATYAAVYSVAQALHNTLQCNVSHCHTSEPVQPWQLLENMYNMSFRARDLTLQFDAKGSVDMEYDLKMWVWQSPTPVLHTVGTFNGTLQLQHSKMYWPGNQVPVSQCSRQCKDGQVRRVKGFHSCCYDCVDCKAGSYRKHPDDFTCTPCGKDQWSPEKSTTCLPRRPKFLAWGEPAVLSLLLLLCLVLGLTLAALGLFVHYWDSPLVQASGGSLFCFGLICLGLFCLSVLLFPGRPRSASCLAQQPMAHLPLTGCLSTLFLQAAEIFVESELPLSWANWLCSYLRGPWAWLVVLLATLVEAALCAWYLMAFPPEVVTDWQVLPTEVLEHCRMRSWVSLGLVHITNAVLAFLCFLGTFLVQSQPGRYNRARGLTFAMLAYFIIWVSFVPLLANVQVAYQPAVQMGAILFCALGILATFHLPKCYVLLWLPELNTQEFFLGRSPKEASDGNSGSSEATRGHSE
Test: calcium imaging in HEK-293 cells transiently transfected with rat T1R1, T1R3 and Gα15 or Gα15/i1
Format: cell-based
Conditions: HEK-293 transiently transfected with rat T1R1, T1R3 and Gα15/i1; in the presence of 2.5 mM IMP
Protocol: Rat T1R2 and T1R3 expression constructs were generated using the pEAK10 expression vector (Edge Biosystems). (Rat T1R1, T1R2, and T1R3 nucleic acid sequences are described in U.S. Provisional Application No. 60/339,472, incorporated by reference in its entirety herein). HEK-293 cells were grown and maintained at 37° C. in Dulbecco's Modified Eagle Medium (DMEM) supplemented with 10% FBS and MEM non-essential amino acids (Gibco BRL). For calcium-imaging experiments, cells were first seeded onto 24-well tissue-culture plates (approximately 100,000 cells per well), and transfected using Mirus Translt-293 (PanVera). Transfection efficiencies, which were estimated by cotransfection with an RFP expression vector, were typically approximately 70%. […] Calcium mobilization was monitored on an Axiovert S100 microscope equipped with an inverted 10×/0.5 LWD piano fluor objective (Zeiss) and a cooled CCD camera (Princeton Instruments). Fluorescence images were acquired at 480 nm excitation and 535 nm emission, and analyzed with Imaging Workbench 4.0 software (Axon Instruments). T1R receptor activity was quantitated by counting the number of responding cells 30 seconds after stimulus addition. […]

SMILES | response of cells (intracellular calcium increase, number of responding cells) to umami taste stimuli
N[C@@H](CC(=O)O)C(=O)O [L-aspartate] | responded
N[C@@H](CCC(=O)O)C(=O)O [L-glutamate] | responded
